Reference: BindingDB's records for doi:10.1016/s0028-3908(00)00128-3 (University of Toronto, 2001)

Target: Metabotropic glutamate receptor 8 (Rattus norvegicus, UniProt P70579)
Sequence (P70579 whole entry): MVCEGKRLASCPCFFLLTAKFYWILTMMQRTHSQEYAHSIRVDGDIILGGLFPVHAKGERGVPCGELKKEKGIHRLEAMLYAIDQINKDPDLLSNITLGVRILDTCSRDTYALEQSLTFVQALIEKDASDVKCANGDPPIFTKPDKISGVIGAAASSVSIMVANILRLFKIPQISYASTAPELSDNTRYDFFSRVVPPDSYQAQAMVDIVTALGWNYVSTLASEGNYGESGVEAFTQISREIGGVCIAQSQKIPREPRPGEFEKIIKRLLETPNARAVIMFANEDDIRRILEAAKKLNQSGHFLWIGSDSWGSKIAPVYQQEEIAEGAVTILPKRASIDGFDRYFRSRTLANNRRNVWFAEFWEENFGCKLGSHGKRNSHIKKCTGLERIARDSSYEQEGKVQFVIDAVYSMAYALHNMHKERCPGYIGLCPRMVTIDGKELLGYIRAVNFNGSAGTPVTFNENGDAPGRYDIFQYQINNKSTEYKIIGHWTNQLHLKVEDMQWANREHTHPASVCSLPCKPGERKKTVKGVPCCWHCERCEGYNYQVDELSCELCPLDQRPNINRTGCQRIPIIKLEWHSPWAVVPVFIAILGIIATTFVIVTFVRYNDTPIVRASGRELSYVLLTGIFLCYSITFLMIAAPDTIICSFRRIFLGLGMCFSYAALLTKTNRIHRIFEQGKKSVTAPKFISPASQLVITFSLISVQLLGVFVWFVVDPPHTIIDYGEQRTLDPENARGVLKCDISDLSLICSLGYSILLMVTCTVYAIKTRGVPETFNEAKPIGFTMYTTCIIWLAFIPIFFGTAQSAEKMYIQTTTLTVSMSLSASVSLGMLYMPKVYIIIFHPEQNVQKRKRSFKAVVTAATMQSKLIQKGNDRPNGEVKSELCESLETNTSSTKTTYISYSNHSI

`N[C@H](CCP(=O)(O)O)C(=O)O` [D-AP4] gave a Ki of over 10000 nM.
Compound `NC(CCC(=O)O)C(=O)O` (configuration not stated) [glutamic acid dianion] has a Ki of over 10000 nM.
For `N[C@@H](COP(=O)(O)O)C(=O)O`, the Ki was 1200 nM.
With `C[C@@](N)(C(=O)O)c1ccc(C(=O)O)cc1` (racemic) the Ki was over 10000 nM.
`NC(C(=O)O)c1ccc(P(=O)(O)O)cc1` (configuration not stated) [Amino-(4-phosphono-phenyl)-acetic acid(RS-PPG)] gave a Ki of 1300 nM.
Compound `N[C@@H](CCP(=O)(O)O)C(=O)O` [2-Amino-4-phosphono-butyric acid] has a Ki of 2700 nM.
In the case of `CC(N)(C(=O)O)c1ccc(P(=O)(O)O)cc1` (configuration not stated), the Ki is reported as 480 nM.
